The results in this text go back to US9556159B2, “Renin inhibitor” (MITSUBISHI TANABE PHARMA CORPORATION, priority 2012, dated 2017).

Where two headings read alike, the source gives them in different places.

In general, IC50 refers to the point on the concentration scale where inhibition reaches its midpoint.

The test has as its target T1, Recombinant human renin (Homo sapiens, UniProt P00797).
T1 sequence (P00797 67-406): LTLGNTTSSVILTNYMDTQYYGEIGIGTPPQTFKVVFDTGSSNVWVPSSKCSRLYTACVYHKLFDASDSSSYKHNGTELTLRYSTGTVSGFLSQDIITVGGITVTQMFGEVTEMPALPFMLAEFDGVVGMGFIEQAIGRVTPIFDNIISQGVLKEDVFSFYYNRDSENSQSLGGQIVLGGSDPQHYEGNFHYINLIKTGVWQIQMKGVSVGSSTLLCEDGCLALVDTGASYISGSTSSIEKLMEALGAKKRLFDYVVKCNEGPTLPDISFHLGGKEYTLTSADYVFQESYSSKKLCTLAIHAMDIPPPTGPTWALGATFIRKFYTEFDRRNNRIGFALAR
As to the kind of experiment: Inhibitory activity against human renin (fluorogenic peptide substrate). The format is biochemical. The conditions noted are these: 37° C. for 1 hour.

[1] abbreviates: 50% inhibitory concentration (IC50) against human renin.

In the case of `COC(=O)NCCCn1cc([C@@H](C)N(C(=O)[C@H]2CNCCO2)C2CC2)nc1OC(C)C` [Example 5, methyl (3-{4-[(1R)-1-{cyclopropyl[(2R)-morpholin-2-ylcarbonyl]amino}ethyl]-2-(propan-2-yloxy)-1H-imidazol-1-yl}propyl)carbamate], the IC50 (read-out: IC50) is 0.7 nM. Regarding `COC(=O)NCCCn1nc([C@@H](C)N(C(=O)[C@H]2CN[C@@H](CO)CO2)C2CC2)c2ccc(C)nc21` [Example 258], the IC50 under setting [1] turned out to be 3.2 nM. In the case of `COC(=O)NCCCn1cc([C@@H](C)N(C(=O)[C@H]2CNCCO2)C2CC2)nc1-c1ccc(F)cc1` [Example 171], the IC50 under setting [1] is 0.4 nM. Turning to `COC(=O)NCCCn1cc([C@@H](C)N(C(=O)[C@H]2CNCCO2)C2CC2)nc1-c1ccccc1` [Example 136], the concentration for half-maximal inhibition (IC50) under setting [1] turned out to be 0.3 nM. For `COC(=O)NCCCc1cc([C@@H](C)N(C(=O)[C@H]2CNC[C@@H](C(=O)OC)O2)C2CC2)sc1-c1ccccc1` [Example 3, methyl (2S,6R)-6-{cyclopropyl[(1R)-1-(4-{3-[(methoxycarbonyl)amino]propyl}-5-phenylthiophen-2-yl)ethyl]carbamoyl}morpholine-2-carboxylate], the 50% inhibitory concentration (IC50) (read-out: IC50) came out at 0.6 nM. Consider `COCCCCn1cc([C@@H](C)N(C(=O)[C@H]2CNCCO2)C2CC2)c2ccnc(C)c21` [Example 134], for which, under setting [1], the IC50 came out at 6.3 nM. Regarding `COCCCOc1nc([C@@H](C)N(C(=O)[C@H]2CNCCO2)C2CC2)cc2ccccc12` [Example 32], under “read-out: IC50”, the half-inhibitory concentration (IC50) stood at 3.3 nM. Take `CC[C@H]1CO[C@@H](C(=O)N(C2CC2)[C@@H](C)c2cn(CCCNC(=O)OC)c(OC(C)C)n2)CN1` [Example 336]: the IC50 under setting [1] was 1.6 nM.

Consider `COC(=O)NCCCn1nc([C@@H](C)N(C(=O)[C@H]2CNC[C@@H](C)O2)C2CC2)c2ccc(C)nc21` [Example 250], for which the concentration for half-maximal inhibition (IC50) under setting [1] amounted to 0.3 nM. With `COC(=O)NCCCc1cc([C@@H](C)N(C(=O)[C@H]2CNC[C@@H](C)O2)C2CC2)nn1-c1ccc(F)cc1` [Example 351], the IC50 under setting [1] is 0.4 nM. On to `COC(=O)NCCCn1nc([C@@H](C)N(C(=O)[C@H]2CNCCO2)C2CC2)c2c1CCCC2` [Example 189], for which the IC50 under setting [1] worked out at 0.9 nM. In the case of `COC(=O)NCCCc1nc([C@@H](C)N(C(=O)[C@H]2CNCCO2)C2CC2)sc1-c1cncnc1` [Example 416], the IC50 under setting [1] came out at 3 nM. As for `COC(=O)NCCCc1cc([C@@H](C)N(C(=O)[C@H]2CNCCO2)C2CC2)sc1-c1cccc(F)c1O` [Example 274], the half-inhibitory concentration (IC50) under setting [1] was found to be 0.5 nM. Consider `COC(=O)NCCCn1nc([C@@H](C)N(C(=O)[C@H]2CNCCO2)C2CC2)cc1C(C)(C)C` [Example 191], for which, under setting [1], the half-inhibitory concentration (IC50) came to 0.7 nM. Regarding `CCOc1ccnc2c([C@@H](C)N(C(=O)[C@H]3CNCCO3)C3CC3)cn(CCCCOC)c12` [Example 101], the half-maximal inhibitory concentration (IC50) (read-out: IC50) was determined as 2.5 nM. As for `CCOc1ncc([C@@H](C)N(C(=O)[C@H]2CNCCO2)C2CC2)cc1CCCNC(=O)OC` [Example 251], under setting [1], the IC50 turned out to be 0.8 nM. For `COCCCOc1cc([C@@H](C)N(C(=O)[C@H]2CNCCO2)C2CC2)nn1-c1ccccc1` [Example 361], under setting [1], the half-maximal inhibitory concentration (IC50) was found to be 0.8 nM.

Turning to `COC(=O)NCCCc1cc([C@@H](C)N(C(=O)[C@H]2CNCCO2)C2CC2)ccc1OC(C)C` [Example 107], the IC50 (read-out: IC50) is 0.7 nM. `COC(=O)NCCCn1cc([C@@H](C)N(C(=O)[C@H]2CNCCO2)C2CC2)nc1C(C)(C)C` [Example 215]: the IC50 under setting [1] was determined as 0.5 nM.

For the molecule `C=C(C)c1sc(C(C)N(C(=O)[C@H]2CNCCO2)C2CC2)cc1CCCNC(=O)OC` (stereo partly drawn) [Example 411], the half-maximal inhibitory concentration (IC50) under setting [1] worked out at 2.2 nM. As for `COC(=O)NCCCn1cc([C@H](C)N(C(=O)[C@H]2CNC[C@@H](COCc3ccccc3)O2)C2CC2)nc1C1CCOCC1` [Example 339], under setting [1], the IC50 worked out at 0.4 nM. Take `COCCCCc1cc([C@@H](C)N(C(=O)[C@H]2CNCCO2)C2CC2)cc(OC)n1` [Example 78]: the IC50 (read-out: IC50) was determined as 0.9 nM. Turning to `CCC(=O)NCCCc1cc([C@@H](C)N(C(=O)[C@H]2CNCCO2)C2CC2)ccc1OC` [Example 68], the 50% inhibitory concentration (IC50) (read-out: IC50) amounted to 4.5 nM. As to `COC(=O)NCCCc1cc(C(C)N(C(=O)[C@H]2CNCCO2)C2CC2)sc1-c1ccc(N)nc1` (stereo partly drawn) [Example 425], under setting [1], the IC50 was found to be 8.8 nM. On the same count and under the same terms, the value for `COC(=O)NCCCn1cc([C@@H](C)N(C(=O)[C@H]2CNCCO2)C2CC2)nc1-c1ccccc1F` [Example 168] was 0.3 nM; that for `COCCCCn1cc([C@@H](C)N(C(=O)[C@H]2CNCCO2)C2CC2)nc1-c1ccccc1` [Example 160] was 0.8 nM. With `COC(=O)NCCCc1cc([C@@H](C)N(C(=O)[C@H]2CNCCO2)C2CC2)sc1-c1ccccc1-c1nnn[nH]1` [Example 270], the IC50 under setting [1] amounted to 0.5 nM. On to `COC(=O)NCCCn1cc([C@@H](C)N(C(=O)[C@H]2CNCCO2)C2CC2)c2ncc(C(C)C)nc21` [Example 162], for which, under setting [1], the IC50 came to 0.6 nM. Regarding `COCCCCn1nc([C@@H](C)N(C(=O)[C@H]2CNCCO2)C2CC2)cc1-c1ccccn1` [Example 205], the IC50 under setting [1] came out at 1.4 nM. Consider `CCOc1ncc([C@@H](C)N(C(=O)[C@H]2CNCCO2)C2CC2)nc1CCCNC(=O)OC` [Example 391], for which the IC50 under setting [1] was found to be 2 nM. The same measure, in the same setting: the same measure for `COC(=O)NC/C=C/c1cc([C@@H](C)N(C(=O)[C@H]2CNC[C@@H](C)O2)C2CC2)nn1-c1cccc(Cl)c1` [Example 346]: 1.3 nM; for `COC(=O)NCCCc1cc([C@@H](C)N(C(=O)[C@H]2CN[C@@H](CC(F)F)CO2)C2CC2)cc(OC)n1` [Example 306]: 1.6 nM; for `COC(=O)NCCCc1cc([C@@H](C)N(C(=O)[C@H]2CNC[C@@H](C)O2)C2CC2)nn1-c1cccc(C)c1` [Example 344]: 0.4 nM. In the case of `COC[C@@H]1CNC[C@H](C(=O)N(C2CC2)[C@H](C)c2nc(CCCNC(=O)OC)n(-c3cccc(Cl)c3)n2)O1` [Example 381], the IC50 under setting [1] stood at 1.7 nM. On to `COC(=O)NCCCc1cc([C@@H](C)N(C(=O)[C@H]2CNCCO2)C2CC2)sc1-c1ncccc1C` [Example 236], for which, under setting [1], the 50% inhibitory concentration (IC50) stood at 0.2 nM. In the case of `COC(=O)NCCCn1nc([C@@H](C)N(C(=O)[C@H]2CNCCO2)C2CC2)nc1-c1ccc(C)cc1` [Example 247], under setting [1], the IC50 is 1.3 nM. In the case of `COC(=O)NCCCc1cc([C@@H](C)N(C(=O)[C@H]2CN[C@@H](C)CO2)C2CC2)nn1-c1cccc(F)c1` [Example 370], the half-inhibitory concentration (IC50) under setting [1] worked out at 1.7 nM. Take `COC(=O)NCCCc1cc([C@@H](C)N(C(=O)[C@H]2CNCCO2)C2CC2)sc1C(C)=O` [Example 441]: under setting [1], the IC50 was found to be 0.8 nM. Consider `COC(=O)NCCCn1nc([C@H](C)N(C(=O)[C@H]2CNCCO2)C2CC2)cc1OC(C)C` [Example 326], for which the IC50 under setting [1] stood at 0.4 nM. Consider `COC(=O)NCCCc1cc([C@@H](C)N(C(=O)[C@H]2CNCCO2)C2CC2)nn1C1CCCCC1` [Example 210], for which the IC50 under setting [1] was 0.2 nM. On to `C[C@@H]1CNC[C@H](C(=O)N(C2CC2)[C@H](C)c2cc(Cc3ccccc3)c(-c3ccccc3-c3nnn[nH]3)s2)O1` [Example 296], for which the concentration for half-maximal inhibition (IC50) under setting [1] came out at 7 nM. With `CCc1nc([C@@H](C)N(C(=O)[C@H]2CNCCO2)C2CC2)cc2c1c(C)cn2CCCOC` [Example 140], the IC50 under setting [1] is 0.8 nM. For `CCc1nc([C@@H](C)N(C(=O)[C@H]2CNC[C@@H](COC)O2)C2CC2)cc2c1ncn2CCCOC` [Example 394], the IC50 under setting [1] was 0.6 nM. As to `COC(=O)NCCCc1cc([C@@H](C)N(C(=O)[C@H]2CNCCO2)C2CC2)sc1-c1ccccc1C(=O)NS(C)(=O)=O` [Example 287], the half-maximal inhibitory concentration (IC50) under setting [1] came out at 0.8 nM.

For the molecule `COC(=O)NCCCc1cc([C@@H](C)N(C(=O)[C@H]2CNCCO2)C2CC2)nn1-c1ccccc1OC` [Example 243], the half-maximal inhibitory concentration (IC50) under setting [1] was found to be 0.7 nM. Regarding `COC(=O)NCCCc1cc([C@@H](C)N(C(=O)[C@H]2CNCCO2)C2CC2)nc2ccccc12` [Example 119], the 50% inhibitory concentration (IC50) under setting [1] turned out to be 0.5 nM.

Consider `COC(=O)NCCCc1cc([C@@H](C)N(C(=O)[C@H]2CNCCO2)C2CC2)sc1-c1ccccc1-c1cc(O)no1` [Example 281], for which the IC50 under setting [1] amounted to 0.4 nM.

Turning to `COCCCc1cn(C)c2cnc([C@@H](C)N(C(=O)[C@H]3CNCCO3)C3CC3)cc12` [Example 33], the IC50 (read-out: IC50) stood at 5.3 nM.

In the case of `COC(=O)NCCCc1nc([C@@H](C)N(C(=O)[C@H]2CNCCO2)C2CC2)sc1-c1ccnc(C)c1` [Example 407], the concentration for half-maximal inhibition (IC50) under setting [1] came out at 1.7 nM. In the case of `COCCCCn1cc([C@@H](C)N(C(=O)[C@H]2CNCCO2)C2CC2)c2nccc(CCOC)c21` [Example 86], the IC50 (read-out: IC50) was determined as 1.1 nM. As for `COC(=O)NCCCn1nc([C@@H](C)N(C(=O)[C@H]2CNC[C@@H](C(=O)N(C)C)O2)C2CC2)c2ccc(C)nc21` [Example 256], the IC50 under setting [1] is 3.1 nM. Still for that read-out and setting: the value for `COC(=O)NCCCn1nc([C@@H](C)N(C(=O)[C@H]2CNCCO2)C2CC2)cc1-c1ccccc1` [Example 159] was 0.2 nM.

Regarding `COC[C@@H]1CNC[C@H](C(=O)N(C2CC2)[C@H](C)c2nn(CCCNC(=O)OC)c3nc(C)ccc23)O1` [Example 1, methyl (3-{3-[(1R)-1-(cyclopropyl{[(2R,6S)-6-(methoxymethyl)morpholin-2-yl]carbonyl}amino)ethyl]-6-methyl-1H-pyrazolo[3,4-b]pyridin-1-yl}propyl)carbamate], the IC50 (read-out: IC50) is 0.3 nM. As to `COC(=O)NCCCc1cc([C@@H](C)N(C(=O)[C@H]2CNCCO2)C2CC2)nn1C(C)C` [Example 225], the IC50 under setting [1] was determined as 0.5 nM. Same read-out and setting: the same measure for `COC(=O)NCCCc1cc([C@@H](C)N(C(=O)[C@H]2CNCCO2)C2CC2)nn1-c1ccc(F)cc1` [Example 221]: 0.3 nM.

With `COC[C@@H]1CNC[C@H](C(=O)N(C2CC2)[C@H](C)c2cn(CCCNC(=O)OC)c(C3CCCCC3)n2)O1` [Example 290], the IC50 under setting [1] was found to be 0.4 nM. On the same count and under the same terms, the value for `COC(=O)NCCCc1cc(C(C)N(C(=O)[C@H]2CNCCO2)C2CC2)sc1-c1cccnc1N` (stereo partly drawn) [Example 422] was 1.7 nM.
